Assay results reported in US10981913B2, “11C -labeled 06 -benzylguanine, pet probe capable of visualizing 06-methyl guanine methyl-transferase activity, and production method of the same” (NATIONAL CENTER FOR GERIATRICS AND GERONTOLOGY, priority 2016, dated 2021).
Several values for one entry are separate records, joined by “and”; a condition that tells them apart may be missing. Equal values may be shown once. Entries after “also recorded” stand apart in the source; their conditions may differ. Read-outs that look alike come from different tables or passages of the source. Each block holds one molecule with its values, some of them ahead of it.

Experiments:
stability in the plasma = format: in vitro ADME
[1] = Pharmacokinetics test using rats (brain permeability, blood and brain tissue by HPLC); format: in vivo, Sprague-Dawley rats; settings: rat; for concentration at 32 min / concentration at 44 min / Kp at 30 min / Kp / concentration at 30 min / Kp at 0.5 h: Sprague-Dawley, iv; for concentration at 32 min / concentration at 44 min / Kp at 30 min / Kp / concentration at 30 min / Kp at 0.5 h / Brain/Plasma ratio / Conc. HPLC (concentration of compound in brain homogenate) / Conc. brain: 10 mg/kg; for Kp at 30 min / concentration of the compound in the brain based on the total dose: 30 minutes after administration; for Kp at 30 min: read-out: ratio of brain concentration to the concentration in the plasma; for Kp: plasma 30 min; for metabolism after intravenous administration (plasma concentration of compound and metabolites over time): i.v., FIGS. 7 to 9; for Brain/Plasma ratio / Conc. HPLC (concentration of compound in brain homogenate) / Conc. brain: listed as mMeBG (2)
Protocol: Regarding O^6-(3-methylbenzyl) guanine (2) and O^6-(4-methylbenzyl) guanine (3) not labeled with ^11C synthesized by the above method (that is, cold), brain permeability was evaluated by the following method.
After intravenous administration (10 mg/kg) of O^6-(3-methylbenzyl) guanine (2) or O^6-(4-methylbenzyl) guanine (3) to Sprague-Dawley rats, blood and brain tissues were collected after a predetermined time, and analyzed by HPLC.

MGMT = molecular target: T1, MGMT (Homo sapiens, UniProt P16455); assay: enzyme inhibitory activity against MGMT using fluorescent labeled oligonucleotide substrates; format: biochemical; settings: FIG. 1
T1 sequence (P16455 1-207): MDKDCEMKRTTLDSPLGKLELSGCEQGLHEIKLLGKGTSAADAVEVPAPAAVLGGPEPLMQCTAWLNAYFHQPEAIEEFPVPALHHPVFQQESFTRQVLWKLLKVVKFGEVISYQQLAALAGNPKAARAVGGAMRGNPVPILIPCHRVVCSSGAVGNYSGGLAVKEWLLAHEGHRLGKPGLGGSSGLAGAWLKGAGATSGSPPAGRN
Source text: The introduction position of the [^11C] methyl group of the benzene ring present in the above-mentioned O^6-benzylguanine (1) was investigated. […] Erickson, K. D. Miller, B. H. Mock, B. E. Glick-Wilsob, W. L. Winkel, K. L. Stone, K. A. Carlson, Synth. Commun. 2003, 33, 941-952.

[2] = brain homogenate, i.v. 10 mg/kg, under anaesthesia, fasting, read-out: Conc. HPLC (concentration of compound in brain homogenate)
[3] = brain, i.v. 10 mg/kg, under anaesthesia, fasting, read-out: Conc. brain
[4] = i.v. 10 mg/kg, 30 min, under anaesthesia, fasting, individual animals
[5] = i.v. 10 mg/kg, 30 min, under anaesthesia, nonfasting, individual animals
[6] = i.v. 10 mg/kg, 30 min, under nonanaesthesia, fasting, individual animals

stability in the plasma (stability in the plasma): stably exist in the plasma
concentration at 32 min [1, 2]: 231 ng/mL
concentration at 44 min [1, 2]: 118 ng/mL
Kp at 30 min ([1]; brain, i.v. 10 mg/kg): 0.3
concentration at 32 min [1, 3]: 959 ng/mL
concentration at 44 min [1, 3]: 470 ng/mL
Kp ([1]; brain, i.v. 10 mg/kg, brain 32 min, under anaesthesia, fasting, read-out: Brain/Plasma ratio): 0.386
Kp ([1]; brain, i.v. 10 mg/kg, brain 44 min, under anaesthesia, fasting, read-out: Brain/Plasma ratio): 0.189
concentration at 30 min ([1]; plasma, average (n = 3), 30 min after i.v. 10 mg/kg of 3, rat under anaesthesia and fasting, other rats than brain sample, read-out: Conc. Plasma): 2480 ng/mL
accumulation in the brain ([1]; i.v. 10 mg/kg): accumulated in the brain
concentration of the compound in the brain based on the total dose ([1]; i.v. 10 mg/kg): 0.1%
SMILES: Cc1ccc(COc2nc(N)nc3nc[nH]c23)cc1 [Compound 3, O^6-(4-methylbenzyl) guanine]
metabolism after intravenous administration (plasma concentration of compound and metabolites over time) [1]: quickly metabolized to unknown, more polar compounds within 240 minutes
MGMT inhibitory effect compared with O^6-benzylguanine (1) (MGMT): MGMT inhibitory effect similar to O^6-benzylguanine (1); also recorded: slightly higher inhibitory activity than O^6-BG (1)

stability in the plasma (stability in the plasma): stably exist in the plasma
concentration at 30 min ([1]; brain homogenate, i.v. 10 mg/kg, 30 min, under anaesthesia, fasting, average, read-out: Conc. HPLC (brain homogenate), Ave.): 513 ng/mL
concentration at 30 min ([1]; brain homogenate, i.v. 10 mg/kg, 30 min, under anaesthesia, fasting, individual animals, read-out: Conc. HPLC (concentration of compound in brain homogenate)): 568 ng/mL
concentration at 30 min ([1]; brain homogenate, i.v. 10 mg/kg, 30 min, under anaesthesia, nonfasting, average, read-out: Conc. HPLC (brain homogenate), Ave.): 663 ng/mL
concentration at 30 min ([1]; brain homogenate, i.v. 10 mg/kg, 30 min, under anaesthesia, nonfasting, individual animals, read-out: Conc. HPLC (concentration of compound in brain homogenate)): 784 ng/mL
concentration at 30 min ([1]; brain homogenate, i.v. 10 mg/kg, 30 min, under nonanaesthesia, fasting, average, read-out: Conc. HPLC (brain homogenate), Ave.): 523 ng/mL
concentration at 30 min ([1]; brain homogenate, i.v. 10 mg/kg, 30 min, under nonanaesthesia, fasting, individual animals, read-out: Conc. HPLC (concentration of compound in brain homogenate)): 536 ng/mL
Kp at 0.5 h ([1]; brain, i.v. 10 mg/kg, 30 min, under anaesthesia, fasting, average, read-out: Brain/Plasma ratio, Ave.): 0.303
concentration at 30 min ([1]; brain, i.v. 10 mg/kg, 30 min, under anaesthesia, fasting, average, read-out: Conc. brain, Ave.): 1350 ng/mL
Kp at 0.5 h ([1]; brain, i.v. 10 mg/kg, 30 min, under anaesthesia, fasting, individual animals, read-out: Brain/Plasma ratio): 0.336
concentration at 30 min ([1]; brain, i.v. 10 mg/kg, 30 min, under anaesthesia, fasting, individual animals, read-out: Conc. brain): 1500 ng/mL
Kp at 0.5 h ([1]; brain, i.v. 10 mg/kg, 30 min, under anaesthesia, nonfasting (plasma value from anaesthesia, fasting rats), average, read-out: Brain/Plasma ratio, Ave.): 0.373
Kp at 0.5 h ([1]; brain, i.v. 10 mg/kg, 30 min, under anaesthesia, nonfasting (plasma value from anaesthesia, fasting rats), individual animals, read-out: Brain/Plasma ratio): 0.425
concentration at 30 min ([1]; brain, i.v. 10 mg/kg, 30 min, under anaesthesia, nonfasting, average, read-out: Conc. brain, Ave.): 1660 ng/mL
concentration at 30 min ([1]; brain, i.v. 10 mg/kg, 30 min, under anaesthesia, nonfasting, individual animals, read-out: Conc. brain): 1890 ng/mL
Kp at 0.5 h ([1]; brain, i.v. 10 mg/kg, 30 min, under nonanaesthesia, fasting, average, read-out: Brain/Plasma ratio, Ave.): 0.265
concentration at 30 min ([1]; brain, i.v. 10 mg/kg, 30 min, under nonanaesthesia, fasting, average, read-out: Conc. brain, Ave.): 1380 ng/mL
Kp at 0.5 h ([1]; brain, i.v. 10 mg/kg, 30 min, under nonanaesthesia, fasting, individual animals, read-out: Brain/Plasma ratio): 0.27
concentration at 30 min ([1]; brain, i.v. 10 mg/kg, 30 min, under nonanaesthesia, fasting, individual animals, read-out: Conc. brain): 1400 ng/mL
Kp at 30 min ([1]; brain, i.v. 10 mg/kg): 0.3
concentration at 30 min ([1]; plasma, average (n = 3), 30 min after i.v. 10 mg/kg of 2, rat under nonanaesthesia and fasting, other rats than brain sample, read-out: Conc. Plasma): 5190 ng/mL
concentration at 30 min ([1]; plasma, average (n = 5), 30 min after i.v. 10 mg/kg of 2, rat under anaesthesia and fasting, other rats than brain sample, read-out: Conc. Plasma): 4450 ng/mL
accumulation in the brain ([1]; i.v. 10 mg/kg): accumulated in the brain
Brain/Plasma ratio [1, 4]: 0.275 and 0.298
Conc. HPLC (concentration of compound in brain homogenate) [1, 4]: 464 ng/mL and 507 ng/mL
Conc. brain [1, 4]: 1223 ng/mL and 1325 ng/mL
Brain/Plasma ratio ([1]; i.v. 10 mg/kg, 30 min, under anaesthesia, nonfasting (plasma value from anaesthesia, fasting rats), individual animals): 0.398 and 0.296
Conc. HPLC (concentration of compound in brain homogenate) [1, 5]: 684 ng/mL and 522 ng/mL
Conc. brain [1, 5]: 1772 ng/mL and 1318 ng/mL
concentration of the compound in the brain based on the total dose ([1]; i.v. 10 mg/kg): 0.1%
SMILES: Cc1cccc(COc2nc(N)nc3nc[nH]c23)c1 [Compound 2, O^6-(3-methylbenzyl) guanine]
Brain/Plasma ratio [1, 6]: 0.315 and 0.255 and 0.249 and 0.229 and 0.277
Conc. HPLC (concentration of compound in brain homogenate) [1, 6]: 635 ng/mL and 474 ng/mL and 481 ng/mL and 454 ng/mL and 555 ng/mL
Conc. brain [1, 6]: 1634 ng/mL and 1323 ng/mL and 1291 ng/mL and 1188 ng/mL and 1436 ng/mL
metabolism after intravenous administration (plasma concentration of compound and metabolites over time) [1]: more stable than the compound (3) and was present for a long time
MGMT inhibitory effect compared with O^6-benzylguanine (1) (MGMT): MGMT inhibitory effect similar to O^6-benzylguanine (1); also recorded: slightly higher inhibitory activity than O^6-BG (1)
